From patent publication US20060281695A1, “Control of parasites in animals by N-[(phenyloxy)phenyl]-1,1,1-trifluoromethanesulfonamide and N-[(phenylsulfanyl)phenyl]-1,1,1-trifluoromethanesulfonamide derivatives” (priority 2005, published 2006)

What was measured:
[1] = tested on: Brown Dog Tick (Rhipicephalus sanguineus); assay: Topical application on brown dog ticks, single dose screen (% mortality at 24 hours); type: in vivo; conditions: adult brown dog ticks, topical 1 μL in acetone on abdomen, single dose 10 μg per tick
Experimental: d) Topical Application On Brown Dog Ticks (Rhipicephalus sanguineus)
The aim of the test is to determine the presence of significant acaricidal activity in sample compounds or formulations when applied topically on brown dog ticks. A tick is defined as dead if it gives no apparent response when: (i) touched lightly and (ii) then observed for 1 minute. To assess the experimental compound for acaricidal activity, a single dose level is chosen based on known results from previous experiments with a commercially available active reference compound.
In the present example, both permethrin and fipronil were employed as reference compounds. The insect species tested was the Brown Dog Tick (Rhipicephalus sanguineus). Mixed sex adult ticks were used for tests. The strain used was cultured from a field strain and supplied as unfed adult ticks (mixed sex). Ticks were maintained in controlled conditions (temp. 18°±2° C., humidity 75±5% RH).
Test compounds (formulations or active ingredients) were stored in a refrigerator (5±1° C.) unless otherwise specified. The temperature was maintained at 25±1° C. and the humidity was ambient. The screening dose chosen was higher than that known kill 90% of insects (LD90) using the reference compound. In the case of topical application of active compounds on adult ticks, the reference compound was fipronil and the dose chosen was 10 μg of active per tick (=10 μg of fipronil/1 μl of acetone). Ticks were each treated on the abdomen with 1 μL of a single dose level of test sample in acetone; ten ticks were treated with solvent only (acetone) in each test. Tests were replicated 4 times (total of 40 ticks treated). Ticks were held in recovery containers maintained under appropriate rearing conditions for 24 hours. Mortality resulting from the treatments was recorded at 24 hours. Pooled 24 hour mortality data were converted to percentages.
(§1) In Table 7, provided below, are listed the Haemonchus contortus LD99 values (measured in micrograms/mL), the Ctenocephalides felis rapid screening values (measured in % mortality), the Ctenocephalides felis LC50 values (measured in micrograms/cm^2) and the Rhipicephalus sanguineus rapid screening values (measured in % mortality) for selected compounds in accordance with the present invention.

Haemonchus contortus = Haemonchus contortus larvacidal (larval development) assay, LD99; type: in vitro
Experimental: The LD99 value is the dose, expressed as […], that was required to kill 99% of a sample of Haemonchus contortus.
a) Haemonchus Contortus Larvacidal Assay:
The effect of compounds on larval development was determined in the assay described by Gill et al. [International Journal of Parasitology 25:463-470 (1995)]. Briefly, in this assay, nematode eggs are applied to the surface of an agar matrix containing the test compound and then allowed to develop through to the L3, infective stage (6 days). The wells for each dilution of every compound (from highest to lowest concentration) are inspected to determine the well number corresponding to the lowest concentration at which development is inhibited in 99% of the nematode larvae present (LD99). Because well numbers correspond to a two-fold serial dilution of each compound, a titre (dilution factor) is generated as 2^n−1, where n is the well number. By dividing the highest concentration tested by the titre an LD99 value can be obtained, representing the concentration required to inhibit development in 99% of the nematode larvae present. The compounds supplied as solid and viscous liquids are dissolved in DMSO. Twelve serial one-half dilutions in DMSO solution are prepared from the stock solution, each of which is then diluted 1/5 with water. Aliquots (10 μl) of each dilution are transferred to the bioassay plates to give a final concentration range of 0.024 to 50 μg/ml.
as §1

[2] = tested on: cat flea (Ctenocephalides felis); assay: Ctenocephalides felis adulticide assay: dose response on treated glass surface (LC50, 24 hours); type: in vivo; conditions: adult cat fleas, 24 h mortality, probit analysis
Experimental: (§2) The LC50 value is the concentration, expressed as μg/cm^2, that was required to kill 50% of the sample of cat fleas on contact with the tested compound. Certain tests are also reported as the percent of a sample of cat fleas that were killed at a concentration of 1.26 μg/cm^2 (“% mortality”), for the compounds tested in this way.
c) Ctenocephalides felis Adulticide Assay: C. felis dose response The purpose of this example is to determine the LC50 when cat fleas are contacted with a glass surface treated with sample compounds or formulations prepared as described above. Mortality of fleas is defined as follows: fleas are considered dead if they don't move or are on their sides and unable to walk or right themselves. LC50: Lethal Concentration 50— concentration of glass surface treatment at which 50% of the cat fleas are killed.
The test species employed was the cat flea (Ctenocephalides felis). The strain used was obtained from external suppliers as pupae and held in the laboratory under testing conditions until the adults had emerged. Fifteen (15) fleas were used in a minimum of four replicates for each dose level (total of 60 fleas per dose level). The insects were selected to be in the adult life stage, aged between 3 and 7 days post emergence.
The compounds to be tested were dissolved in acetone just prior to testing. Samples of compounds were stored in a refrigerator (5±1° C.) unless otherwise specified. During the mortality testing, the temperature was maintained at 25±1° C. Humidity was maintained at 75±5%. The base (area=159 mm^2) of a 100 mL glass Erlenmeyer (conical) flask provided the treatment surface. Flasks were pre-treated with Coatasil™ glass treatment to maximise bio-availability of test compounds by preventing them from binding to the glass surface.
Six dose levels (concentrations) of test sample, in the form of a serial dilution, were derived from a pilot study and covered a range that produced very low to very high mortality. The base of the 100 mL Erlenmeyer flask was treated with 0.5 mL of test sample in acetone and gently swirled. This volume was sufficient to cover the base of the flask. Flasks were left to dry for 24 hours before flea exposure. Adult cat fleas were lightly anaesthetised by cooling and then placed into a sorting chamber, which allowed fleas to revive and jump into the Erlenmeyer flasks. Fifteen (15) adult cat fleas were collected in each flask. The top of the flasks were then covered in Parafilm™ and small holes made to allow gas exchange. A 0.5 mL volume of acetone was applied to the base of an Erlenmeyer flask and the testing proceeded in the same manner described above. Cat fleas in the treatment containers were held under testing conditions for 24 hours. Mortality resulting from the treatments was recorded at 24 hours. […] 3rd ed. Cambridge Univ. Press, London (1971)].
as §1

[3] = tested on: cat flea (Ctenocephalides felis); assay: Ctenocephalides felis adulticide assay: single dose screen on treated glass surface (% mortality at 1.26 μg/cm^2, 24 hours); type: in vivo; conditions: for Ctenocephalides felis Mortality (%) 24 h: in vivo
Experimental: as §2
b) Ctenocephalides felis Adulticide Assay: C.felis single dose screen
Mortality of fleas is the primary endpoint in the assay. […] The concentration chosen (1.26 μg/cm^2) is higher than that known to kill 90% of cat fleas (LC90) using the reference compound, permethrin.
The test species employed was the cat flea (Ctenocephalides felis). The strain used was obtained from external suppliers as pupae and held in the laboratory under testing conditions until the adults had emerged. Fifteen (15) fleas were used in a minimum of four replicates against a single concentration level (approximately 60 fleas). The insects were selected to be in the adult life stage, aged between 3 and 7 days post emergence.
The compounds to be tested were supplied as solids and were prepared in acetone as described below prior to testing. Samples were stored in a refrigerator (5±1° C.) unless otherwise specified.
During the mortality testing, the temperature was maintained at 25±1° C. Humidity was maintained at 75±5%. The base (area=159 mm^2) of a 100 mL glass Erlenmeyer (conical) flask provided the treatment surface. Flasks were pre-treated with Coatasil™ glass treatment to maximise bio-availability of test compounds by preventing them from binding to glass the surface. The base of the 100 mL Erlenmeyer flask was treated with 0.5 mL of test sample in acetone and gently swirled. This volume was sufficient to cover the base of the flask. Flasks were left to dry for 24 hours before flea exposure.
Adult cat fleas were placed into a sorting chamber, which allowed fleas to jump into the Erlenmeyer flasks. Fifteen (15) adult cat fleas were collected in each flask. The top of the flasks were then covered in Parafilm™ and small holes were made to allow gas exchange. A 0.5 mL volume of acetone as a solvent control was applied to the base of an Erlenmeyer flask and the testing proceeded in the same manner described above. […] Pooled 24 hour mortality data were converted to percentages and are summarized by Table 4, below.
as §1

| Compound | Rhipicephalus sanguineus Mortality (%) 24 h [1] | Haemonchus contortus LD99 (Haemonchus contortus) | Ctenocephalides felis LC50 [2] | Ctenocephalides felis Mortality (%) 24 h [3] | mortality at 1.26 µg/cm2, 1.26 µg/cm2 ([3]; Ctenocephalides felis, 24 h, read-out: Ctenocephalides felis Mortality (%) 24 h) |
| --- | --- | --- | --- | --- | --- |
| Cc1ccccc1Oc1cc(Cl)ccc1NS(=O)(=O)C(F)(F)F [Compound 21] | 90% | 15.0 µg/mL | 0.12 μg/cm^2 | 100% | – |
| O=S(=O)(Nc1ccc(Cl)cc1Oc1cccc(F)c1)C(F)(F)F [Compound 25] | – | – | 0.73 μg/cm^2 | 100% | – |
| O=S(=O)(Nc1cc(Cl)ccc1Oc1ccc(Cl)cc1Cl)C(F)(F)F [Compound 8] | – | 2.75 µg/mL | 0.59 μg/cm^2 | 62% | – |
| O=S(=O)(Nc1ccc(Cl)cc1Oc1ccc(F)cc1F)C(F)(F)F [Compound 4] | 83% | 12.0 µg/mL | 0.27 μg/cm^2 | 98% | – |
| O=S(=O)(Nc1cc(C(F)(F)F)ccc1Oc1ccc(F)cc1)C(F)(F)F [Compound 30] | – | – | 0.71 μg/cm^2 | 100% | – |
| O=S(=O)(Nc1ccc(Cl)cc1Sc1cccc(Cl)c1)C(F)(F)F [Compound 15] | – | 5.5 µg/mL | 0.30 μg/cm^2 | 100% | – |
| O=S(=O)(Nc1ccc(Cl)cc1Oc1ccc(Cl)cc1Cl)C(F)(F)F [Compound 1, N-[4-Chloro-2-(2,4-dichlorophenoxy)phenyl]-1,1,1-trifluoromethanesulfonamide] | 68% | 1.5 µg/mL | 0.32 μg/cm^2 | – | 100% |
| O=S(=O)(Nc1ccc(C(F)(F)F)cc1Oc1cccc(C(F)(F)F)c1)C(F)(F)F [Compound 55] | – | – | 1.88 μg/cm^2 | 100% | – |
| O=S(=O)(Nc1ccc(Cl)cc1Oc1ccc(Cl)cc1)C(F)(F)F [Compound 5] | – | 11.0 µg/mL | 0.66 μg/cm^2 | 100% | – |
| O=S(=O)(Nc1ccccc1Nc1ccccc1)C(F)(F)F [Compound 90] | 13% | – | – | 88% | – |
| CCc1ccccc1Oc1cc(Cl)ccc1NS(=O)(=O)C(F)(F)F [Compound 38] | – | – | 0.75 μg/cm^2 | 95% | – |
| O=S(=O)(Nc1cc(C(F)(F)F)ccc1Oc1cccc(C(F)(F)F)c1)C(F)(F)F [Compound 9] | 25% | 2.5 µg/mL | 0.09 μg/cm^2 | 94% | – |
| O=S(=O)(Nc1ccc(Cl)cc1Oc1ccccc1C(F)(F)F)C(F)(F)F [Compound 2] | 28% | 5.5 µg/mL | 0.19 μg/cm^2 | 100% | – |
| O=S(=O)(Nc1ccc(Cl)cc1Sc1ccccc1F)C(F)(F)F [Compound 68] | 55% | – | 0.59 μg/cm^2 | 100% | – |
| O=S(=O)(Nc1ccc(Cl)cc1Oc1ccc(F)cc1)C(F)(F)F [Compound 26] | – | – | 0.33 μg/cm^2 | 100% | – |
| O=S(=O)(Nc1ccc(Cl)cc1Sc1ccccc1)C(F)(F)F [Compound 59] | – | – | 0.97 μg/cm^2 | 100% | – |
| O=S(=O)(Nc1ccc(Cl)cc1Sc1ccc(F)cc1)C(F)(F)F [Compound 20] | 95% | 13.0 µg/mL | 0.13 μg/cm^2 | 100% | – |
| O=S(=O)(Nc1ccc(Cl)cc1Oc1ccc(F)c(F)c1)C(F)(F)F [Compound 16] | – | 11.0 µg/mL | 0.78 μg/cm^2 | 100% | – |
| CCOCN(c1cccc(Oc2ccccc2)c1)S(=O)(=O)C(F)(F)F [m3] | 38% | – | – | 57% | – |
